In PMC10648944, “Fumagillin inhibits growth of the enteric protozoan parasite Entamoeba histolytica by covalently binding to and selectively inhibiting methionine aminopeptidase 2” (Antimicrobial Agents and Chemotherapy, 2023) one finds Ki and Km data, which are given here for two molecules.

Data set [1] addresses T1, E. histolytica methionine aminopeptidase 2 (EhMetAP2) (Entamoeba histolytica, UniProt C4LWW4).
T1 construct: gene EHI_126880; full-length, N-terminal GST fusion (GST-EhMetAP2) expressed in S. cerevisiae
T1 sequence (C4LWW4 1-413): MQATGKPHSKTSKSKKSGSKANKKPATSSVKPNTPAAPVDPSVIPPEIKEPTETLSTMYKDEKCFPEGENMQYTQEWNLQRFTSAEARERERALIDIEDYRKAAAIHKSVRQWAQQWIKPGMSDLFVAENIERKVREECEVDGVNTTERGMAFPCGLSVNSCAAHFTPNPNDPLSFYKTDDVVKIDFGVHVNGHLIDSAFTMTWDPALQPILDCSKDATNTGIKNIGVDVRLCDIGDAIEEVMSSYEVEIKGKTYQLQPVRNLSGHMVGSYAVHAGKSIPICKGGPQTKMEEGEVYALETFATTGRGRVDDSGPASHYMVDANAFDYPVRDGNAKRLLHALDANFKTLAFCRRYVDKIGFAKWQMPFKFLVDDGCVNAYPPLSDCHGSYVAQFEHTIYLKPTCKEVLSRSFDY
The data set can be described thus: fluorogenic Met-MCA aminopeptidase assay with purified GST-EhMetAP2, double-reciprocal plot. The format is biochemical.

Substrate in data set [2]: CSCC[C@H](N)C(=O)Nc1ccc2c(C)cc(=O)oc2c1
The data set can be described thus: fluorometric hydrolysis by purified GST-EhMetAP2; Km by end point assay. The format is biochemical, Entamoeba histolytica. The conditions noted are these: Mn2+ / Mg2+ ([…] MnCl2, […] MgCl2 in the assay).

As usually defined, the Ki is a measure of affinity in units of concentration, obtained from inhibition or displacement. A higher Ki goes with lower affinity. Take `CO[C@@H]1[C@H](OC(=O)/C=C/C=C/C=C/C=C/C(=O)O)CC[C@]2(CO2)[C@H]1[C@@]1(C)O[C@@H]1CC=C(C)C` [compound 1, fumagillin]: the Ki in data set [1] stood at 60 ± 33 nM.

B1: E. histolytica methionine aminopeptidase 2 (EhMetAP2) (Entamoeba histolytica HM-1:IMSS) (protein)
chain: MQATGKPHSKTSKSKKSGSKANKKPATSSVKPNTPAAPVDPSVIPPEIKEPTETLSTMYKDEKCFPEGENMQYTQEWNLQRFTSAEARERERALIDIEDYRKAAAIHKSVRQWAQQWIKPGMSDLFVAENIERKVREECEVDGVNTTERGMAFPCGLSVNSCAAHFTPNPNDPLSFYKTDDVVKIDFGVHVNGHLIDSAFTMTWDPALQPILDCSKDATNTGIKNIGVDVRLCDIGDAIEEVMSSYEVEIKGKTYQLQPVRNLSGHMVGSYAVHAGKSIPICKGGPQTKMEEGEVYALETFATTGRGRVDDSGPASHYMVDANAFDYPVRDGNAKRLLHALDANFKTLAFCRRYVDKIGFAKWQMPFKFLVDDGCVNAYPPLSDCHGSYVAQFEHTIYLKPTCKEVLSRSFDY
notes: full-length, N-terminal GST fusion (GST-EhMetAP2) expressed in S. cerevisiae
The term Km denotes the concentration of substrate that gives half-maximal velocity. On to B1, for which the Km in data set [2] was determined as 770 ± 40 µM.
